Experiments:
Phakopsora pachyrhizi = assay: Phakopsora test (soybeans)/preventive; type: in vivo; settings: preventive spray, evaluated 7 days after inoculation
Protocol: Phakopsora Test (Soybeans)/Preventive
(§1) To produce a suitable preparation of active compound, 1 part by weight of active compound is mixed with the stated amounts of solvent and emulsifier, and the concentrate is diluted with water to the desired concentration.
(§2) To test for preventive activity, young plants are sprayed with the preparation of active compound at the stated rate of application. After the spray coating has dried on, the plants are inoculated with an aqueous spore suspension of the causal agent of soybean rust (Phakopsora pachyrhizi) and stay for 24 h without light in an incubation cabinet at approximately 24° C. and a relative atmospheric humidity of 95%.
The plants remain in the incubation cabinet at approximately 24° C. and a relative atmospheric humidity of approximately 80% and a day/night interval of 12 h.
The test is evaluated 7 days after the inoculation. 0% means an efficacy which corresponds to that of the untreated control, while an efficacy of 100% means that no disease is observed.

Alternaria solani = assay: Alternaria test (tomatoes)/preventive; type: in vivo; settings: preventive spray, evaluated 3 days after inoculation
Protocol: Alternaria Test (Tomatoes)/Preventive
as §1
as §2, with “Alternaria solani. The plants are then placed” for “the causal agent of soybean rust (Phakopsora pachyrhizi) and stay for 24 h without light”, “20°” for “24°”, “100%.” for “95%.”
The test is evaluated 3 days after the inoculation. 0% means an efficacy which corresponds to that of the untreated control while an efficacy of 100% means that no disease is observed.

Row | Molecule | Efficacy in % found (Phakopsora pachyrhizi; 2.5 ppm a.i.) [%] | Efficacy in % found (Alternaria solani; 2.5 ppm a.i.) [%] | Efficacy in % found (Phakopsora pachyrhizi; 25 ppm a.i.) [%] | Efficacy in % found (Alternaria solani; 25 ppm a.i.) [%]
1 | CC1CC(C)(C)c2cccc(NC(=O)c3cn(C)nc3C(F)F)c21 (stereo not drawn) [(I-1), 3-(difluoromethyl)-1-methyl-N-(1,1,3-trimethyl-2,3-dihydro-1H-inden-4-yl)-1H-pyrazole-4-carboxamide] | 68 | 36 |  | 
2 | Cn1c(=O)c2sc3c(=O)n(C)c(=O)c3sc2c1=O [2.1, 2,6-dimethyl-1H,5H-[1,4]dithiino[2,3-c:5,6-c′]dipyrrole-1,3,5,7(2H,6H)-tetrone] |  |  | 8 | 39
3 | propineb [2.2] |  |  | 0 | 33

Reference: US10111434B2, “Binary fungicidal mixtures” (BAYER CROPSCIENCE AG, priority 2012, dated 2018)
